Laboratory results reported in a compilation of properties of binary mixtures (doi:10.1016/j.jct.2008.09.001).

Assay: xn = mol fraction of the nth substance listed
Conditions: 101.3 kPa

Q: What does the source list for `CCCCCCCC[n+]1ccccc1.F[B-](F)(F)F` + O?
A: viscosity (283.15 K, x2 = 0): 640 mPa·s; viscosity (283.15 K, x2 = 0.1): 404 mPa·s; viscosity (283.15 K, x2 = 0.184): 261 mPa·s; viscosity (283.15 K, x2 = 0.324): 161.4 mPa·s; viscosity (283.15 K, x2 = 0.477): 116.4 mPa·s; viscosity (283.15 K, x2 = 0.562): 63.8 mPa·s; viscosity (283.15 K, x2 = 0.67): 65.55 mPa·s; viscosity (283.15 K, x2 = 0.758): 51.8 mPa·s; viscosity (283.15 K, x2 = 0.783): 54.27 mPa·s; viscosity (288.15 K, x2 = 0.562): 49.84 mPa·s; viscosity (288.15 K, x2 = 0.783): 38.63 mPa·s; viscosity (293.15 K, x2 = 0): 320 mPa·s; viscosity (293.15 K, x2 = 0.477): 69.9 mPa·s; viscosity (293.15 K, x2 = 0.562): 39.6 mPa·s; viscosity (293.15 K, x2 = 0.67): 40.42 mPa·s; viscosity (293.15 K, x2 = 0.758): 28.74 mPa·s; viscosity (293.15 K, x2 = 0.783): 29.21 mPa·s; viscosity (298.15 K, x2 = 0): 234 mPa·s; viscosity (298.15 K, x2 = 0.1): 159.1 mPa·s; viscosity (298.15 K, x2 = 0.184): 112.3 mPa·s; viscosity (298.15 K, x2 = 0.324): 72 mPa·s; viscosity (298.15 K, x2 = 0.477): 55.07 mPa·s; viscosity (298.15 K, x2 = 0.562): 31.77 mPa·s; viscosity (298.15 K, x2 = 0.783): 22.73 mPa·s; viscosity (303.15 K, x2 = 0): 171.9 mPa·s; viscosity (303.15 K, x2 = 0.1): 122.5 mPa·s; viscosity (303.15 K, x2 = 0.184): 86 mPa·s; viscosity (303.15 K, x2 = 0.324): 57.88 mPa·s; viscosity (303.15 K, x2 = 0.477): 44.37 mPa·s; viscosity (303.15 K, x2 = 0.562): 26.47 mPa·s; viscosity (303.15 K, x2 = 0.67): 26.82 mPa·s; viscosity (303.15 K, x2 = 0.758): 19.17 mPa·s; viscosity (303.15 K, x2 = 0.783): 18.09 mPa·s; viscosity (308.15 K, x2 = 0.1): 96.2 mPa·s; viscosity (308.15 K, x2 = 0.184): 68.3 mPa·s; viscosity (308.15 K, x2 = 0.324): 47.09 mPa·s; viscosity (308.15 K, x2 = 0.477): 36.11 mPa·s; viscosity (308.15 K, x2 = 0.67): 22.27 mPa·s; viscosity (308.15 K, x2 = 0.758): 15.97 mPa·s; viscosity (313.15 K, x2 = 0): 105.7 mPa·s; viscosity (313.15 K, x2 = 0.1): 71.5 mPa·s; viscosity (313.15 K, x2 = 0.184): 54.93 mPa·s; viscosity (313.15 K, x2 = 0.324): 38.75 mPa·s; viscosity (313.15 K, x2 = 0.477): 30.19 mPa·s; viscosity (313.15 K, x2 = 0.758): 13.56 mPa·s; viscosity (313.15 K, x2 = 0.783): 12.78 mPa·s; viscosity (318.15 K, x2 = 0.1): 57.41 mPa·s; viscosity (318.15 K, x2 = 0.184): 44.98 mPa·s; viscosity (318.15 K, x2 = 0.477): 25.23 mPa·s; viscosity (318.15 K, x2 = 0.562): 16.88 mPa·s; viscosity (318.15 K, x2 = 0.67): 15.98 mPa·s; viscosity (318.15 K, x2 = 0.758): 11.52 mPa·s; viscosity (318.15 K, x2 = 0.783): 11.08 mPa·s; viscosity (323.15 K, x2 = 0): 64.89 mPa·s; viscosity (323.15 K, x2 = 0.1): 46.73 mPa·s; viscosity (323.15 K, x2 = 0.184): 37.06 mPa·s; viscosity (323.15 K, x2 = 0.477): 21.39 mPa·s; viscosity (323.15 K, x2 = 0.67): 13.65 mPa·s; viscosity (323.15 K, x2 = 0.758): 9.95 mPa·s; viscosity (323.15 K, x2 = 0.783): 9.39 mPa·s; viscosity (328.15 K, x2 = 0): 53.52 mPa·s; viscosity (328.15 K, x2 = 0.324): 23.23 mPa·s; viscosity (328.15 K, x2 = 0.477): 18.15 mPa·s; viscosity (328.15 K, x2 = 0.562): 12.05 mPa·s; viscosity (328.15 K, x2 = 0.67): 11.88 mPa·s; viscosity (328.15 K, x2 = 0.783): 8.2 mPa·s; viscosity (333.15 K, x2 = 0.324): 19.92 mPa·s; viscosity (333.15 K, x2 = 0.477): 15.84 mPa·s; viscosity (333.15 K, x2 = 0.562): 10.61 mPa·s; viscosity (333.15 K, x2 = 0.67): 10.38 mPa·s; viscosity (333.15 K, x2 = 0.783): 7.17 mPa·s; viscosity (338.15 K, x2 = 0): 38.1 mPa·s; viscosity (338.15 K, x2 = 0.1): 27.06 mPa·s; viscosity (338.15 K, x2 = 0.184): 22.38 mPa·s; viscosity (338.15 K, x2 = 0.324): 17.32 mPa·s; viscosity (338.15 K, x2 = 0.477): 13.44 mPa·s; viscosity (338.15 K, x2 = 0.758): 6.75 mPa·s; viscosity (338.15 K, x2 = 0.783): 6.31 mPa·s; viscosity (343.15 K, x2 = 0): 32.38 mPa·s; viscosity (343.15 K, x2 = 0.1): 23.06 mPa·s; viscosity (343.15 K, x2 = 0.184): 19.25 mPa·s; viscosity (343.15 K, x2 = 0.477): 11.58 mPa·s; viscosity (343.15 K, x2 = 0.562): 8.15 mPa·s; viscosity (343.15 K, x2 = 0.758): 5.99 mPa·s; viscosity (343.15 K, x2 = 0.783): 5.58 mPa·s; viscosity (348.15 K, x2 = 0.1): 19.83 mPa·s; viscosity (348.15 K, x2 = 0.184): 16.71 mPa·s; viscosity (348.15 K, x2 = 0.324): 13.13 mPa·s; viscosity (348.15 K, x2 = 0.562): 7.17 mPa·s; viscosity (348.15 K, x2 = 0.67): 7.19 mPa·s; viscosity (348.15 K, x2 = 0.758): 5.29 mPa·s; viscosity (348.15 K, x2 = 0.783): 4.97 mPa·s; viscosity (353.15 K, x2 = 0): 24.05 mPa·s
